# Source: ChEMBL document CHEMBL2157992, “SAR studies of epoxycurcuphenol derivatives on leukemia CT-CD4 cells” (2012)
# Experiments:
# Assay type in all cases: functional
# [1] = tested on: Jurkat; test: Antiproliferative activity against human Jurkat cells assessed as proliferation index at 10 uM after 24 hrs using CFSE staining by flow cytometry relative to original parent cells (reference value: 2.48)
# [2] = tested on: Jurkat; test: Antiproliferative activity against human Jurkat cells assessed as non proliferative fraction at 10 uM after 24 hrs using CFSE staining by flow cytometry (reference value: 0.59)
# [3] = tested on: Jurkat; test: Antiproliferative activity against human Jurkat cells assessed as parent population at 10 uM after 24 hrs using CFSE staining by flow cytometry (reference value: 23.70 %)
# [4] = tested on: Jurkat; test: Antiproliferative activity against human Jurkat cells assessed as 3rd generation cell population at 10 uM after 24 hrs using CFSE staining by flow cytometry relative to control
# [5] = tested on: Jurkat; test: Inhibition of cell division in human Jurkat cells at 1 uM
# [6] = tested on: Jurkat; test: Antiproliferative activity against human Jurkat cells assessed as proliferation index of >/= 3rd generation cells at 10 uM after 24 hrs using CFSE staining by flow cytometry relative to original parent cells
# [7] = tested on: Jurkat; test: Antiproliferative activity against human Jurkat cells assessed as 5th generation cell population at 10 uM after 24 hrs using CFSE staining by flow cytometry (reference value: 18.43 %)
# [8] = tested on: Jurkat; test: Antiproliferative activity against human Jurkat cells assessed as 4th generation cell population at 10 uM after 24 hrs using CFSE staining by flow cytometry (reference value: 25. 99 %)
# [9] = tested on: Jurkat; test: Antiproliferative activity against human Jurkat cells assessed as 2nd generation cell population at 10 uM after 24 hrs using CFSE staining by flow cytometry relative to control
Compound,Ratio [1],Ratio [2],Activity [3],Activity [4],inhibition at 1 µM [5],Ratio [6],Activity [7],Activity [8],Activity [9]
Cc1cc(O)c([C@@H](C)CC[C@H]2OC2(C)C)cc1O (relative stereo),1.36,0.92,67.44%,17.04%,100%,6.14,,,
Cc1ccc([C@@H](C)CC[C@@H]2CO2)c(O)c1 (relative stereo),5.71,0.3,5.27%,,,9.25,40.06%,,
CC[C@@H](CC[C@H]1OC1(C)C)c1cc(O)ccc1O (relative stereo),3.04,0.62,20.3%,21.3%,,7.93,18.48%,20.47%,
CC[C@@H](CC[C@@H]1CO1)c1cc(O)ccc1O (relative stereo),5.06,0.4,7.95%,,,10.11,48.54%,,
Cc1cc(O)c([C@H](C)CC[C@H]2OC2(C)C)cc1O (relative stereo),1.62,0.87,53.81%,,100%,8.05,,13.9%,
Cc1ccc([C@H](C)CC[C@H]2OC2(C)C)c(O)c1 (relative stereo),5.2,0.42,8.09%,,,10.46,49.3%,,
CC[C@H](CC[C@H]1OC1(C)C)c1ccccc1O (relative stereo),4.38,0.46,10.46%,,,9.29,33.67%,,
CC1(C)OC1CCCc1cc(O)ccc1O (stereo unspecified),1.11,0.94,84.84%,,,4.76,,,7.31%
CC[C@H](CC[C@@H]1CO1)c1cc(O)ccc1O (relative stereo),5.01,0.42,8.46%,,,10.24,47.67%,,
CC[C@@H](CC[C@H]1OC1(C)C)c1ccccc1O (relative stereo),4.1,0.48,11.75%,,,8.5,29.37%,,
C[C@@H](CC[C@H]1OC1(C)C)c1cc(O)ccc1O (relative stereo),6.47,0.39,6.02%,,,10.81,64.37%,,
Cc1cc(O)c([C@@H](C)CC[C@@H]2CO2)cc1O (relative stereo),1.09,0.98,89.59%,6.73%,,5.7,,,
CC[C@H](CC[C@@H](C)O)c1ccccc1O (relative stereo),6.11,0.32,5.19%,,,10.18,46.79%,,
Cc1ccc([C@H](C)CC[C@@H]2CO2)c(O)c1 (relative stereo),5.86,0.37,6.23%,,,10.07,47.87%,,
CC[C@H](CC[C@H]1OC1(C)C)c1cc(O)ccc1O (relative stereo),2.73,0.59,21.49%,35.78%,,6.16,11.8%,13.9%,
Cc1cc(O)c([C@H](C)CC[C@@H]2CO2)cc1O (relative stereo),1.85,0.86,46.39%,,,7.64,18.91%,,
Cc1ccc([C@@H](C)CC[C@H]2OC2(C)C)c(O)c1 (relative stereo),4.77,0.41,8.71%,,,9.67,38.84%,,
